Results published in ChEMBL document CHEMBL2074185, “Differential effects of the breast cancer resistance protein on the cellular accumulation and cytotoxicity of 9-aminocamptothecin and 9-nitrocamptothecin” (Cancer Res, 2003).

Biological target: T1, Broad substrate specificity ATP-binding cassette transporter ABCG2 (Homo sapiens, UniProt Q9UNQ0)
T1 sequence (Q9UNQ0 whole entry): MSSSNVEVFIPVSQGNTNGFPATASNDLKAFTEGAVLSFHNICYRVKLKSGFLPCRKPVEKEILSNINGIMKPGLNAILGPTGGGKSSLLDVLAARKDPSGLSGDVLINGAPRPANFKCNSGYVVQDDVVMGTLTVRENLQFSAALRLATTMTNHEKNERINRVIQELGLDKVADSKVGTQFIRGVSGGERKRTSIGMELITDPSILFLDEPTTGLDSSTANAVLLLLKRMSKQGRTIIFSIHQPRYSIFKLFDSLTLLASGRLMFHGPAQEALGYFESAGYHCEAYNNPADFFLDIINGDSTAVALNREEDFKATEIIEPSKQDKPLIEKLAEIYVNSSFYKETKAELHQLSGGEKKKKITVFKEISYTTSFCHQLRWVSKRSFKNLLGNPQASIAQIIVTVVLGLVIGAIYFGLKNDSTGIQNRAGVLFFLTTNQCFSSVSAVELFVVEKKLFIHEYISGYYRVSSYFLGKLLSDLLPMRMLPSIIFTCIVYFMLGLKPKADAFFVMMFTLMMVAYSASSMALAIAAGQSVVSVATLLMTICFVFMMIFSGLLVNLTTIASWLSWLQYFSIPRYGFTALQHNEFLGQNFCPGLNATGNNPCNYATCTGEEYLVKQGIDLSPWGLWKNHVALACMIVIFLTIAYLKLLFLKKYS
Assay: TP_TRANSPORTER: uptake in BCRP-expressing HEK293 cells
Format: functional, cell-based

Activity: substrate []
SMILES: CC[C@@]1(O)C(=O)OCc2c1cc1n(c2=O)Cc2cc3c(N)cccc3nc2-1 [9-AMINOCAMPTOTHECIN]
